# US20240156838A1, “Contraceptive Compositions and Methods for Improved Efficacy and Modulation of Side Effects” (Agile Therapeutics, Inc., priority 2015, published 2024)
# Read-outs that look alike come from different tables or passages of the source.
# Tests used:
# [1] = cited from earlier work; for unenhanced flux: without chemical enhancers
# SHBG [2] = target: T1, SHBG (Homo sapiens, UniProt P04278); settings: cited from earlier work; for binding affinity for SHBG: Phillips 1990, Steroids
# T1 sequence (P04278 30-402): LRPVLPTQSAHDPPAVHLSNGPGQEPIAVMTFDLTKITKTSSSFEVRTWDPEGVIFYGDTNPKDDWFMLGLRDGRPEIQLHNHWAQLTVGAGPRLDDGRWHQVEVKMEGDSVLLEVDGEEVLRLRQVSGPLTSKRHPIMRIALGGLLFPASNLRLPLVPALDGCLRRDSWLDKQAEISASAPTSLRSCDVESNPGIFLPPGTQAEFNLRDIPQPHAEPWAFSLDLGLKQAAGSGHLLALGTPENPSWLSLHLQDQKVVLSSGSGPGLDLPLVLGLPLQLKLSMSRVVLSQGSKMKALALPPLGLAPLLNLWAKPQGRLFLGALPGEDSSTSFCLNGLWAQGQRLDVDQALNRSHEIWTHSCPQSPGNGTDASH
# [3] = In vitro skin permeation of LNG from patches, Franz diffusion cells; format: in vitro ADME, human; settings: comparison in words
# Description: The objective of this study was to compare in vitro skin permeation of LNG through human cadaver skin from a patch containing both EE and LNG (Patch of column 4, Table 1) with a patch containing only LNG (patch in column 2, Table 1).
# Only one (1) skin donor was used in these in vitro skin permeation experiments (split thickness dermatomed approximately at […] human cadaver skin). All in vitro skin permeation studies were conducted using the PermeGear Membrane Transport System. Each Membrane Transport System consisted of vertical, jacketed (37° C.±0.5° C.) Franz diffusion cells with magnetic stirrer, 2 chamber (donor and receiver) sets of 6 units, orifice diameter 15 mm, effective permeation surface area 1.767 cm^2. Each cell was prepared by cutting the skin samples into approximately 3 cm×3 cm squares and mounting them on the top of the receiver compartment of Franz cells. Patches to be tested were placed on the stratum corneum surface of the skin and the donor and receiver compartments of the diffusion cells were then clamped in place. The receiver compartment was then filled with approximately 12 mL of receiver medium/receptor solution (Phosphate Buffered Saline (PBS)+0.5% Oleth 20+0.008% Gentamicin, pH 7.3), tilting to make sure the receiver medium and the skin/solution interface was free of any air bubbles.
# Skin flux studies were run for a period of 168 hours. […]
# [4] = human, in vivo
# [5] = in vivo; cited from earlier work
# SHBG [6] = target: T1, SHBG; settings: cited from earlier work
# [7] = Second clinical trial of LNG plus EE transdermal patches (Example 2): serum/plasma LNG and EE levels; settings: clinical data of LNG plus EE patches versus LNG-only patches
# [8] = Victor et al., J. Clin. Endocrinol. Metab. 43: 244
compound,measurement,setting,value
C#C[C@]1(O)CC[C@H]2[C@@H]3CCC4=CC(=NO)CC[C@@H]4[C@H]3CC[C@@]21CC (mixture of isomers) [17 deacetylnorgestimate],unenhanced flux,[1]; from cited patents,0.1 micrograms/cm^2/hr
C#CC1(O)CC[C@H]2[C@@H]3CCC4=CC(=O)CC[C@@H]4[C@H]3CC[C@@]21CC (mixture of isomers) [dl-norgestrel],binding affinity to SHBG,SHBG [2]; [8],higher affinity for SHBG than EE
C#C[C@]1(O)CC[C@H]2[C@@H]3CCC4=CC(=O)CC[C@@H]4[C@H]3CC[C@@]21CC [d-norgestrel],binding affinity to SHBG,SHBG [2]; [8],higher affinity for SHBG than EE
C#C[C@]1(O)CC[C@H]2[C@@H]3CCC4=CCCC[C@@H]4[C@H]3CC[C@@]21C [lynestrenol],binding affinity to SHBG,SHBG [2]; [8],higher affinity for SHBG than EE
C#C[C@]1(OC(C)=O)CC[C@H]2[C@@H]3CCC4=CC(=O)CC[C@@H]4[C@H]3CC[C@@]21C [norethisterone acetate],unenhanced flux,[1]; from cited patents,0.05 micrograms/cm^2/hr
C#C[C@]1(O)CC[C@H]2[C@@H]3CCC4=CCCC[C@@H]4[C@H]3C(=C)C[C@@]21CC [desogestrel],binding affinity to SHBG,"SHBG [2]; Pollow 1989, Contraception",lesser binding affinity
same,binding affinity to SHBG,SHBG [2]; Schoultz 1989,lesser binding affinity
C=C1C[C@H]2[C@@H]3CCC4=CC(=O)CC[C@@H]4[C@H]3CC[C@]2(C)[C@@]1(OC(C)=O)C(C)=O [nesterone],enhanced flux,"[1]; with chemical enhancers, from cited patents",0.01 micrograms/cm^2/hr
same,unenhanced flux,[1]; from cited patents,0.005 micrograms/cm^2/hr
"C#C[C@]1(O)CC[C@H]2[C@@H]3CCC4=CC(=O)CC[C@@H]4[C@H]3CC[C@@]21CC [LNG, levonorgestrel]","permeation/release of LNG through human skin, LNG-only versus LNG plus EE patches",[3],not affected by the presence of EE
same,"mean serum concentration of LNG, value extrapolated from the data collected",[4],1420 picograms per milliliter
C#C[C@]1(O)CC[C@H]2[C@@H]3CCC4=CC(=O)CC[C@@H]4[C@H]3C(=C)C[C@@]21CC [3-keto desogestrel],binding affinity for SHBG,SHBG [2],reasonably high affinities
same,binding affinity to SHBG,"SHBG [2]; Pollow 1989, Contraception",high binding affinity
C#C[C@]1(O)CC[C@H]2[C@@H]3CCC4=CC(=O)CC[C@@H]4[C@H]3CC[C@@]21C [norethisterone],binding affinity to SHBG,SHBG [2]; Schoultz 1989,high binding affinity
same,binding affinity to SHBG,SHBG [2]; [8],higher affinity for SHBG than EE
medroxyprogesterone,binding affinity to SHBG,SHBG [2]; [8],do not have high binding affinity
C#C[C@]1(O)C=C[C@H]2[C@@H]3CCC4=CC(=O)CC[C@@H]4[C@H]3CC[C@@]21CC [gestodene],binding affinity for SHBG,SHBG [2],reasonably high affinities
same,binding affinity to SHBG,"SHBG [2]; Pollow 1989, Contraception",high binding affinity
C#C[C@]1(OC(C)=O)CC[C@H]2[C@@H]3CCC4=CC(=NO)CC[C@@H]4[C@H]3CC[C@@]21CC (mixture of isomers) [norgestimate],binding affinity for SHBG,SHBG [2],low binding affinity
C#C[C@]1(OC(C)=O)CC[C@H]2[C@@H]3CCC4=CC(=O)CC[C@@H]4[C@H]3CC[C@@]21C [Norethindrone Acetate],flux,"[1]; U.S. Pat. No. 5,474,783, enhancement not stated",0.05 micrograms/cm^2/hr
"C[C@]12CC[C@@H]3c4ccc(O)cc4CC[C@H]3[C@@H]1CC[C@@H]2O [17-beta estradiol, 17-beta-estradiol]",oral bioavailability,[5],less than 10%
C#C[C@]1(O)CC[C@H]2[C@@H]3CCC4=C(CCC(=O)C4)[C@H]3CC[C@@]21C [norethynodrel],binding affinity to SHBG,SHBG [2]; [8],higher affinity for SHBG than EE
"C#C[C@]1(O)CC[C@H]2[C@@H]3CCc4cc(O)ccc4[C@H]3CC[C@@]21C [EE, ethinyl estradiol]",IC50,"SHBG [6]; Hong et al., 2015, read-out: IC50 in testosterone displacement assay",790 nM
same,IC50,"SHBG [6]; according to Hong (2015), read-out: IC50 (affinity for SHBG)",800 nM
same,oral bioavailability,[5],95%
same,increase of LNG plasma levels by addition of EE relative to addition of an equivalent amount of LNG,[7],about ten
CC(=O)O[C@]1(C(C)=O)CC[C@H]2[C@@H]3C=C(C)C4=CC(=O)CC[C@]4(C)[C@H]3CC[C@@]21C [Megestrol acetate],binding affinity to SHBG,SHBG [2]; [8],do not have high binding affinity
CC(=O)O[C@]1(C(C)=O)CC[C@H]2[C@@H]3C[C@H](C)C4=CC(=O)CC[C@]4(C)[C@H]3CC[C@@]21C [medroxyprogesterone acetate],binding affinity to SHBG,"SHBG [2]; Pollow 1989, Contraception",lesser binding affinity
same,binding affinity to SHBG,SHBG [2]; Schoultz 1989,lesser binding affinity
CC(=O)[C@H]1CC[C@H]2[C@@H]3CCC4=CC(=O)CC[C@]4(C)[C@H]3CC[C@]12C [progesterone],unenhanced flux,[1]; from cited patents,0.14 micrograms/cm^2/hr
same,binding affinity to SHBG,"SHBG [2]; Pollow 1989, Contraception",lesser binding affinity
CC(=O)O[C@]1(C(C)=O)CC[C@H]2[C@@H]3C=C(Cl)C4=CC(=O)[C@@H]5C[C@@H]5[C@]4(C)[C@H]3CC[C@@]21C [cyproterone acetate],binding affinity to SHBG,"SHBG [2]; Pollow 1989, Contraception",lesser binding affinity
